From the supplement of paper PMC11061612

Legend:
[1] = compound: Cc1cc2ncnn2cc1Nc1ncc2c(n1)n(C1CCOCC1)c(=O)n2C [AZD7648]; conditions: max 10 µM
Method in brief: (§1)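 Cancer cell lines were seeded in 1536-well plates in 7.5 μl DMEM/F12 or RPMI with 10% FBS, held 24 hours at 37°C and 5% CO2, then dosed for 72 hours (final DMSO typically 0.2%). Viability was read by CellTiter-Glo 2.0 luminescence and scaled between blank-well and DMSO-well means. The single-agent IC50 comes from dose responses fitted to a two-parameter logistic curve with a non-linear mixed effects model.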

[2] = compound: CC(=O)O[C@H]1C(=O)[C@@]2(C)[C@H]([C@H](OC(=O)c3ccccc3)[C@]3(O)C[C@H](OC(=O)[C@H](O)[C@@H](NC(=O)c4ccccc4)c4ccccc4)C(C)=C1C3(C)C)[C@]1(OC(C)=O)CO[C@@H]1C[C@@H]2O [Paclitaxel]; conditions: max 3 µM
Method in brief: as §1

[3] = compound: Cc1nc(-c2cn3c(n2)-c2ccc(-c4cnn(C(C)(C)C(N)=O)c4)cc2OCC3)n(C(C)C)n1 [Taselisib]; conditions: max 10 µM
Method in brief: as §1

[4] = compound: C[C@@H](Nc1cc(F)cc(F)c1)c1cc(C(=O)N(C)C)cc2c(=O)cc(N3CCOCC3)oc12 [AZD8186]; conditions: max 10 µM
Method in brief: as §1

[5] = compound: CC1=CN2[C@@H](C1)C=NC3=CC(=C(C=C3C2=O)OC)OCCCCCOC4=C(C=C5C(=C4)N=C[C@@H]6CC(=CN6C5=O)C)OC [SG3199]; conditions: max 0.001 µM
Method in brief: as §1

[6] = compound: CN(C)CCCOc1ccc(-c2ccc3ncc4c(c3c2)n(C2CCOCC2)c(=O)n4C)cn1 [AZD0156]; conditions: max 3 µM
Method in brief: as §1

[7] = compound: O=C(Nc1ccc2[nH]nc(-c3ccncc3)c2c1)[C@@H]1CCN(CC(=O)N2CCN(c3ccc(-c4ncccn4)cc3)CC2)C1; conditions: max 5 µM
Method in brief: as §1

[8] = compound: C1CC(C1)(C(=O)[O-])C(=O)[O-].N.N.[Pt+2] [Carboplatin]; conditions: max 10 µM
Method in brief: as §1

[9] = compound: C[C@@H](c1ccc2nccn2c1)n1nnc2ncc(-c3cnn(C)c3)nc21 [Savolitinib]; conditions: max 1 µM
Method in brief: as §1

[10] = compound: CCc1c2c(nc3ccc(O)cc13)-c1cc3c(c(=O)n1C2)COC(=O)[C@]3(O)CC [SN-38]; conditions: max 0.3 µM
Method in brief: as §1

[11] = compound: C=CCn1c(=O)c2cnc(Nc3ccc(N4CCN(C)CC4)cc3)nc2n1-c1cccc(C(C)(C)O)n1 [AZD1775]; conditions: max 3 µM
Method in brief: as §1

[12] = compound: O=c1[nH]cc(F)c(=O)[nH]1 [5-Fluorouracil]; conditions: max 20 µM
Method in brief: as §1

[13] = compound: CC(=O)Nc1cccc(-n2c(=O)n(C3CC3)c(=O)c3c(Nc4ccc(I)cc4F)n(C)c(=O)c(C)c32)c1 [Trametinib]; conditions: max 1 µM
Method in brief: as §1

[14] = compound: NC1(c2ccc(-c3nc4ccn5c(=O)[nH]nc5c4cc3-c3ccccc3)cc2)CCC1 [MK-2206]; conditions: max 10 µM
Method in brief: as §1

[15] = compound: Nc1ccn([C@@H]2O[C@H](CO)[C@@H](O)C2(F)F)c(=O)n1 [Gemcitabine]; conditions: max 0.3 µM
Method in brief: as §1

[16] = compound: COc1nnc2ccc(N3CCC(c4ccc(OCCN5CCN(C)C(=O)[C@H]5C)cc4)CC3)nn12 [AZD5153]; conditions: max 1 µM
Method in brief: as §1

[17] = compound: COc1cc2ncnc(Nc3ccc(F)c(Cl)c3)c2cc1OCCCN1CCOCC1 [Gefitinib]; conditions: max 10 µM
Method in brief: as §1

[18] = compound: CS(=O)(=O)CCNCc1ccc(-c2ccc3ncnc(Nc4ccc(OCc5cccc(F)c5)c(Cl)c4)c3c2)o1 [Lapatinib]; conditions: max 10 µM
Method in brief: as §1

[19] = compound: CC(C)n1c(=O)n(C)c2cnc3cc(F)c(-c4ccc(OCCCN5CCCCC5)nc4)cc3c21 [AZD1390]; conditions: max 0.3 µM
Method in brief: as §1

[20] = compound: C1CN(CCC1(C(=O)N[C@@H](CCO)C2=CC=C(C=C2)Cl)N)C3=NC=NC4=C3C=CN4 [AZD5363]; conditions: max 10 µM
Method in brief: as §1

[21] = compound: COc1cccc2c1C(=O)c1c(O)c3c(c(O)c1C2=O)C[C@@](O)(C(=O)CO)C[C@@H]3O[C@H]1C[C@H](N)[C@H](O)[C@H](C)O1 [Doxorubicin]; conditions: max 1 µM
Method in brief: as §1

[22] = compound: C[C@@H](Oc1cc(-c2cnn(C3CCNCC3)c2)cnc1N)c1c(Cl)ccc(F)c1Cl [Crizotinib]; conditions: max 10 µM
Method in brief: as §1

[23] = compound: Cn1cnc2c(F)c(Nc3ccc(Br)cc3Cl)c(C(=O)NOCCO)cc21 [Selumetinib]; conditions: max 10 µM
Method in brief: as §1

[24] = compound: CC(=O)c1c(C)c2cnc(Nc3ccc(N4CCNCC4)cn3)nc2n(C2CCCC2)c1=O [Palbociclib]; conditions: max 10 µM
Method in brief: as §1

[25] = compound: N#Cc1cnc(Nc2cc(NC[C@H]3CNCCO3)c(C(F)(F)F)cn2)cn1 [SRA737]; conditions: max 10 µM
Method in brief: as §1

[26] = compound: C[C@@H]1COCCN1C2=NC(=NC(=C2)C3(CC3)[S@](=N)(=O)C)C4=C5C=CNC5=NC=C4 [AZD6738]; conditions: max 10 µM
Method in brief: as §1

[27] = compound: CN(CC[C@H](CSC1=CC=CC=C1)NC2=C(C=C(C=C2)S(=O)(=O)NC(=O)C3=CC=C(C=C3)N4CCC(CC4)[C@H](C5=CC=CC=C5C6=CC=C(C=C6)Cl)O)S(=O)(=O)C(F)(F)F)CCO [AZD4320]; conditions: max 1 µM
Method in brief: as §1

[28] = compound: O=C(c1cc(Cc2n[nH]c(=O)c3ccccc23)ccc1F)N1CCN(C(=O)C2CC2)CC1 [Olaparib]; conditions: max 10 µM
Method in brief: as §1

[29] = compound: CC1(C)CCC(CN2CCN(c3ccc(C(=O)NS(=O)(=O)c4ccc(NCC5CCOCC5)c([N+](=O)[O-])c4)c(Oc4cnc5[nH]ccc5c4)c3)CC2)=C(c2ccc(Cl)cc2)C1 [Venetoclax]; conditions: max 1 µM
Method in brief: as §1

[30] = compound: Cc1c2c(nn1C)CSCc1cc(n(C)n1)CSc1cc(c3ccccc3c1)OCCCc1c(C(=O)O)n(C)c3c-2c(Cl)ccc13 [AZD5991]; conditions: max 1 µM
Method in brief: as §1

[31] = compound: COc1cc([C@@H]2c3cc4c(cc3[C@@H](O[C@@H]3O[C@@H]5CO[C@@H](C)O[C@H]5[C@H](O)[C@H]3O)[C@H]3COC(=O)[C@H]23)OCO4)cc(OC)c1O [Etoposide]; conditions: max 10 µM
Method in brief: as §1

[32] = compound: CC1=C(C(=CC=C1)Cl)NC(=O)C2=CN=C(S2)NC3=CC(=NC(=N3)C)N4CCN(CC4)CCO [Dasatinib]; conditions: max 2 µM
Method in brief: as §1

[33] = compound: COc1cc(Nc2ncc3c(n2)-c2ccc(Cl)cc2C(c2c(F)cccc2OC)=NC3)ccc1C(=O)O [Alisertib]; conditions: max 10 µM
Method in brief: as §1

[34] = compound: COc1cccc(OCCCN)c1-c1cc(Nc2cnc(C#N)cn2)n[nH]1 [Prexasertib]; conditions: max 1 µM
Method in brief: as §1

[35] = compound: CCN(CCO)CCCOc1ccc2c(Nc3cc(CC(=O)Nc4cccc(F)c4)[nH]n3)ncnc2c1 [AZD2811]; conditions: max 1 µM
Method in brief: as §1

SW1463 (Colorectal Carcinoma)
IC50, cell viability 72 h [1]: > 10 µM
IC50, cell viability 72 h [2]: > 3 µM
IC50, cell viability 72 h [3]: > 10 µM
IC50, cell viability 72 h [4]: > 10 µM
IC50, cell viability 72 h [5]: > 0.001 µM
IC50, cell viability 72 h [6]: > 3 µM
IC50, cell viability 72 h [7]: > 5 µM
IC50, cell viability 72 h [8]: > 10 µM
IC50, cell viability 72 h [9]: > 1 µM
IC50, cell viability 72 h [10]: > 0.3 µM
IC50, cell viability 72 h [11]: > 3 µM
IC50, cell viability 72 h [12]: > 20 µM
IC50, cell viability 72 h [13]: 0.0784 µM
IC50, cell viability 72 h [14]: > 10 µM
IC50, cell viability 72 h [15]: > 0.3 µM
IC50, cell viability 72 h [16]: > 1 µM
IC50, cell viability 72 h [17]: 3.27 µM
IC50, cell viability 72 h [18]: > 10 µM
IC50, cell viability 72 h [19]: > 0.3 µM
IC50, cell viability 72 h [20]: > 10 µM
IC50, cell viability 72 h [21]: > 1 µM
IC50, cell viability 72 h [22]: > 10 µM
IC50, cell viability 72 h [23]: 4.95 µM
IC50, cell viability 72 h [24]: 7.12 µM
IC50, cell viability 72 h [25]: > 10 µM
IC50, cell viability 72 h [26]: > 10 µM
IC50, cell viability 72 h [27]: > 1 µM
IC50, cell viability 72 h [28]: > 10 µM
IC50, cell viability 72 h [29]: > 1 µM
IC50, cell viability 72 h [30]: > 1 µM
IC50, cell viability 72 h [31]: > 10 µM
IC50, cell viability 72 h [32]: > 2 µM
IC50, cell viability 72 h [33]: > 10 µM
IC50, cell viability 72 h [34]: 0.288 µM
IC50, cell viability 72 h [35]: > 1 µM
